What was measured:
[1] = Bleaching of coffee-tea stained bovine enamel with EZ-1 and various ester substrates (Example 15)
Protocol: The optimal conditions used for the generation of peracetic acid with each substrate were derived from the studies in Example 14 and are listed below as follows:
Bovine enamel incisors were prepared as indicated in Example 1. The stained enamel blocks were placed in a 24 well plate with the dentin side facing down and hydrated overnight in phosphate buffer, pH 7.2. Prior to treatment, a color measurement of each tooth was performed using a Konica-Minolta 2600d spectrophotometer and whiteness index was calculated as specified in Example 1.
Each enzyme solution was prepared in a 1.5-mL microfuge tube (Eppendorf, #2243102-1) and 1 mL of the solution was immediately transferred to the 24 well plate containing the pre-hydrated teeth. The control samples consisted of 100 mM phosphate buffer, pH 7.2 and 9% H2O2 in 100 mM citrate/phosphate buffer, pH 5.3. The teeth were incubated at room temperature for 30 minutes, removed, rinsed with 100 mM phosphate, pH 7.2 and a color measurement was taken. The teeth were placed back into the 24 well plate at which time fresh enzyme solutions were prepared and added to each well. This process was repeated for a total of 3 whitening treatments; 30 min per treatment (Table 22).

[2] = One-step bleaching of stained bovine enamel with perhydrolase system (Example 12)
Text: (§1) Whiteness index (WI) is defined by the International Commission on Illumination (CIE) and described in ASTM method E313-05 and calculated for D65/10 incident light as: WI=Y+800*(0.3138−x)+1700*(0.3310−y) Where Y, x, and y are the luminance factor and the chromaticity coordinates respectively of the enamel substrate.
(§2) The purpose of this example is to show the tooth bleaching effect of enzymatic generated peracetic acid in a one-step application and compare to the performance achieved with chemically derived peracetic acid. Two methods were developed to use a perhydrolytic enzyme (CE-7 perhydrolase) system to achieve the target level of tooth bleaching. The first method (referred to herein as the “one-step approach”) comprises combining different amounts of at least one CE-7 perhydrolase with triacetin (an example of a suitable ester substrate) and hydrogen peroxide to generate peracetic acid using model stained enamel substrates. Bovine enamel incisors were prepared as indicated in Example 1. Stained bovine enamel blocks were hydrated in water at least 1 hr prior to use to stabilize the color of the substrate. The color for each enamel block was measured after hydration prior to the start of the experiment. Three enamel samples were treated for each solution type. The solutions used were a buffer only control, 2.5% H2O2, 1% peracetic acid, a perhydrolase composition including 10 μM EZ-1 (C277S; SEQ ID NO: 424), 100 mM triacetin and 250 mM H2O2 and a no enzyme control of 100 mM triacetin and 250 mM H2O2. All solutions were prepared in 500 mM sodium phosphate buffer, pH 7.2. The high buffer strength was necessary to maintain the 1% peracetic acid solution at neutral pH. All solutions were freshly prepared for each treatment point. The enzyme-triacetin-H2O2 combination and triacetin-H2O2 combination was mixed immediately before enamel exposure. After each treatment step, each enamel block was rinsed with water and a color measurement was obtained. A total treatment time of 61 min was used with durations of exposure of 1 min, 5 min, 10 min, 15 min and 30 min. The concentration of peracetic acid in solution after the 1 min, 10 min and 30 min treatments was evaluated by colorimetric detection of ABTS oxidation.

[3] = Peracetic acid in treatment solution by ABTS absorbance (Example 12); assay type: biochemical; conditions: 1:100 dilution into ABTS reagent
Text: as §2
Determination of the peracetic acid (PAA) concentration in the reaction mixtures by a colorimetric method was performed according to the method described by Dinu et. al. (supra). A reagent solution of 1 mM 2,2′-azino-bis(3-ethylbenzothiazoline)-6-sulfonate (ABTS), 50 μM potassium iodide in 125 mM potassium citrate buffer at pH 5.0 was prepared. […] The solution was analyzed for absorbance at 405 nm using a Microplate reader. A comparison of relative amounts of peracetic acid in solution was determined by comparing absorbance values directly.

[4] = Peracetic acid vs hydrogen peroxide bleaching of coffee/tea stained bovine enamel (whiteness index); conditions: for ΔWI: 0 to 61 min; for Whiteness Index 0 min: before exposure
Text: This example describes the use of peracetic acid to achieve a bleaching effect on model stained enamel surfaces. Bovine enamel incisors were obtained from SE Dental (Baton Rouge, La.). Teeth were sectioned and cut into enamel slabs approximately 7 mm on each side using a DREMEL® rotary saw (Robert Bosch Power Tool Corporation; Chicago, Ill.) with a diamond blade. The enamel slabs were cleaned and lightly polished to remove surface debris. The enamel was pretreated with a mixture of coffee and tea for 1-5 days in order to stain to a color similar to human stained teeth.
Each enamel block was hydrated in water for at least 1 hr prior to use. Color measurements for the substrate were obtained prior to exposure to test solutions. Solutions of peracetic acid were prepared from a 32% stock in 500 mM sodium phosphate buffer, pH 7.2. A solution of 2.5% H2O2 was also prepared in the same buffer. Multiple enamel blocks were exposed to each solution for 1 min followed by additional exposures of 5 min, 10 min, 15 min and 30 min. For each treatment, a fresh solution of peracetic acid and hydrogen peroxide was prepared from the stock solutions. After each treatment the enamel blocks were rinsed with water and measured with a Konica-Minolta 2600d spectrophotometer.
as §1

In the case of `OO` [Enzyme H2O2, hydrogen peroxide], the “Whiteness Index Treatment 1” value ([1]; after 1 x 30 min treatment) is reported as −129.6, the “Whiteness Index Treatment 2” value ([1]; after 2 x 30 min treatments) is reported as −117.6 and the “Whiteness Index Treatment 3” value ([1]; after 3 x 30 min treatments) is reported as −115.2. The “Whiteness Index Treatment 0” value ([1]; before treatment, 40 ppm EZ-1, 100 mM substrate, H2O2 100 mM (TA), 360 mM (PGDA, SOC), 60 mM (GPA), pH 7.2, control 9% H2O2 pH 5.3 without enzyme) was −167.6, the ΔWI ([1]; treatment 0 to treatment 3) was 52.4 and the “Whiteness Index 0 min” value ([2]; before treatment, 2.5% H2O2, 100 mM triacetin/250 mM H2O2, 1% PAA, 10 μM EZ-1/100 mM triacetin/250 mM H2O2, pH 7.2) was −149.3. For the same compound, the ΔWI ([2]; one-step, 0 to 61 min) was 46.2, the “Whiteness Index 1 min” value ([2]; one-step, cumulative treatment 1 min) was −146.3 and the “Whiteness Index 6 min” value ([2]; one-step, cumulative treatment 6 min) was −142.5. For the same compound, the “Whiteness Index 16 min” value ([2]; one-step, cumulative treatment 16 min) was −134.7, the “Whiteness Index 31 min” value ([2]; one-step, cumulative treatment 31 min) was −125.2 and the “Whiteness Index 61 min” value ([2]; one-step, cumulative treatment 61 min) was −103.1. The “Absorbance 405 nm, 1 min” value ([3]; peracetic acid at end of 1 min treatment) was 0.056, the “Absorbance 405 nm, 10 min” value ([3]; peracetic acid at end of 10 min treatment) was 0.060 and the “Absorbance 405 nm, 30 min” value ([3]; peracetic acid at end of 30 min treatment) was 0.054. The ΔWI ([4]; Table 1, 2.5% H2O2 or 0.5% PAA) was 42.6, the “Whiteness Index 1 min” value ([4]; Table 1, 2.5% H2O2 or 0.5% PAA, cumulative exposure 1 min) was −127.2 and the “Whiteness Index 6 min” value ([4]; Table 1, 2.5% H2O2 or 0.5% PAA, cumulative exposure 6 min) was −124.5. The “Whiteness Index 16 min” value ([4]; Table 1, 2.5% H2O2 or 0.5% PAA, cumulative exposure 16 min) was −118.4, the “Whiteness Index 31 min” value ([4]; Table 1, 2.5% H2O2 or 0.5% PAA, cumulative exposure 31 min) was −103.6 and the “Whiteness Index 61 min” value ([4]; Table 1, 2.5% H2O2 or 0.5% PAA, cumulative exposure 61 min) was −84.9. For the same compound, the “Whiteness Index 0 min” value ([4]; Table 1, 2.5% H2O2 or 0.5% PAA, 500 mM sodium phosphate pH 7.2) was −127.5, the “Whiteness Index 1 min” value ([4]; Table 2, 2.5% H2O2) was −92.6 and the “Whiteness Index 6 min” value ([4]; Table 2, 2.5% H2O2) was −86.4. The “Whiteness Index 16 min” value ([4]; Table 2, 2.5% H2O2) was −79.5, the “Whiteness Index 31 min” value ([4]; Table 2, 2.5% H2O2) was −68.3 and the “Whiteness Index 61 min” value ([4]; Table 2, 2.5% H2O2) was −56.4. For the same compound, the ΔWI ([4]; Table 2, 2.5% H2O2) was 37.4 and the “Whiteness Index 0 min” value ([4]; Table 2, 2.5% H2O2) was −93.8.
